Experimental data as given in patent US11339203B2, “Antitumor peptide and use thereof” (TOAGOSEI CO., LTD., priority 2018, dated 2022).
Where two headings read alike, the source gives them in different places. Where no end group is shown, it is not given here.

Columns and labels:
in vitro = type: cell-based, human; settings: human
Protocol: (§1) CAKI2 cells were cultured and adjusted to cell count of about 5×10^3 cells per single well of 96-well plate. The amount of medium at this time was made to be 100 μL per well. Next, the 96-well plate was arranged in a CO2 incubator and incubated for about 1 day (21 hours to 24 hours) under conditions of 37° C. and 5% CO2. Subsequently, peptide-containing test media were respectively prepared for each concentration so that the concentration of each sample peptide targeted for evaluation was 12.5 μM and 25 μM followed by supplying to the wells in which the cells targeted for evaluation were cultured (namely, the wells following the above-mentioned incubation) so that the amount of media was 90 μL per well. The 96-well plate was then returned to CO2 incubator followed by incubating for 48 hours under conditions of 37° C. and 5% CO2. The number of wells (n) at each concentration in each peptide addition test group was set to 3. Thus, the values of the results indicated in the following table are the average values of the results respectively obtained for 3 test wells. Cell viability (%) was determined in the manner described below. […] Following completion of incubation, cell viability (%) was evaluated using a colorimetric method consisting of recovering the cell culture liquid containing the above-mentioned reagent together with measuring absorbance at wavelength of 450 nm based on reduction of tetrazolium salt (value corrected for absorbance at a wavelength of 650 nm: A450 to A650). More specifically, the cell viability (%) of each test cell line was calculated from the measured absorbance as a relative value based on cell viability of 100% for the measured value (measured absorbance) of the comparison test group that underwent incubation for 48 hours as described above in only medium not containing peptide. Antitumor activity was evaluated for Sample 2 in above-mentioned Test Example 1 targeted at multiple types of human-derived cultured tumor cells. […]

[1] = system: normal human mammary epithelial cells (MCF-12F); experiment: in vitro; type: cell-based; settings: each tumor cell line (CAKI2, PC-3, A2058, H2444, A549) versus MCF-12F; result in words
Protocol: as §1

[2] = system: human melanoma cell line (A2058); type: cell-based; settings: 48 h
Protocol: CAKI2 cells were cultured and adjusted to cell count of about 5×10^3 cells per single well of 96-well plate. The amount of medium at this time was made to be 100 μL per well. Next, the 96-well plate was arranged in a CO2 incubator and incubated for about 1 day (21 hours to 24 hours) under conditions of 37° C. and 5% CO2. […] Cell viability (%) was determined in the manner described below. […] Following completion of incubation, cell viability (%) was evaluated using a colorimetric method consisting of recovering the cell culture liquid containing the above-mentioned reagent together with measuring absorbance at wavelength of 450 nm based on reduction of tetrazolium salt (value corrected for absorbance at a wavelength of 650 nm: A450 to A650). More specifically, the cell viability (%) of each test cell line was calculated from the measured absorbance as a relative value based on cell viability of 100% for the measured value (measured absorbance) of the comparison test group that underwent incubation for 48 hours as described above in only medium not containing peptide. Antitumor activity was evaluated for Sample 2 in above-mentioned Test Example 1 targeted at multiple types of human-derived cultured tumor cells. […]

FIGNLALSDLLAGVAYTANLLLKKRTLRKNDRKKR-NH2 [Sample 2]
viability at 48 h, 12.5 μM (in vitro): 59.6%
viability at 48 h, 25 μM (in vitro): 13.8%
antitumor activity against tumor cells in comparison with normal cells [1]: more potent antitumor activity
Cell Viability (%) ([2]; 12.5 μM): 6.5%
Cell Viability (%) ([2]; 25 μM): 0.2%
